Source: article PMC8875555, “Discovery of Kinase and Carbonic Anhydrase Dual Inhibitors by Machine Learning Classification and Experiments” (Pharmaceuticals, 2022)
Values joined by “and” are separate entries in the source; they are usually repeats but may differ in a detail not shown here. Identical values can stand only once.

Experiments:
CA XII = CA XII (Homo sapiens, UniProt O43570); assay: CA enzyme inhibition with 4-nitrophenyl acetate as substrate; format: biochemical
Method: (§1) All the reagents used for the biochemical experiments for enzyme inhibitions were bought from Cayman (Ann Harbor, MI, USA), Sigma–Aldrich (St. Louis, MO, USA), Sino Biological (Beijing, China), or Tokyo Chemical Industry (Tokyo, Japan). Inhibitory activities of small molecules on CAs were measured using 4-nitrophenyl acetate as a substrate. […] The changes were measured at 96-well microplates using Epoch2 from BioTek (Winooski, VT, USA). The slope in a time-dependent measurement was calculated by linear regression and interpreted as the quantified activity. Each 200 μL reaction solution comprised 5 nM enzyme and 1 mM substrate buffered using phosphate-buffered saline containing 5% dimethyl sulfoxide and 0.01% (w/v) Triton X-100 under the absence or the presence of inhibitor. […] The substrate-only solution was used as a control to consider autohydrolysis of the substrate. The value of IC50 was converted into Ki using the Cheng–Prusoff equation [66].

CA IX = CA IX (Homo sapiens, UniProt Q16790); assay: as above; format: biochemical; details: converted from IC50 by Cheng-Prusoff; 5 nM enzyme, 1 mM substrate, 0.01% Triton X-100, 37 °C
Method: as §1

CA I [1] = biological target: T1, CA I (Homo sapiens, UniProt P00915); assay: as above; format: biochemical; details: converted from IC50 by Cheng-Prusoff; 5 nM enzyme, 1 mM substrate, 0.01% Triton X-100, 37 °C
T1 sequence (P00915 whole entry): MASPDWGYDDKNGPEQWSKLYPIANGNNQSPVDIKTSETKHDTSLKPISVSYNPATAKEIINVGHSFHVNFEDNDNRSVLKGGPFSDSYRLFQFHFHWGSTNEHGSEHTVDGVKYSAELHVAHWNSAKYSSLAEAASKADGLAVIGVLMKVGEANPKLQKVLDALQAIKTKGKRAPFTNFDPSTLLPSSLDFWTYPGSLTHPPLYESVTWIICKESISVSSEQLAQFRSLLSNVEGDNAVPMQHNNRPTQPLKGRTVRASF
Method: as §1

CA II [2] = biological target: T2, CA II (Homo sapiens, UniProt P00918); assay: as above; format: biochemical; details: converted from IC50 by Cheng-Prusoff; 5 nM enzyme, 1 mM substrate, 0.01% Triton X-100, 37 °C
Method: as §1

CDK2 = tested on: CDK2; parameters: method as in PMID 15974571; details: cited from earlier work
CA I [3] = biological target: T1, CA I; assay: Differential scanning fluorimetry (DSF); format: binding; details: 200 µM inhibitor; for CA I ΔTm: shift from apo CA I
Method: (§2) The biophysical experiments involved the binding of small molecules to CA I or CA II, which were quantified using the Tm of DSF. The profile was generated by CFX-connect […] (BioRad, Hercules, CA, USA). The solution contained 5× SYPRO® Orange and 0.5 µM recombinant human CA I or CA II in the absence or presence of 200 µM inhibitor. […] The patterns were nonlinearly fitted to the Boltzmann equation to calculate Tm. […] Nonlinear curve fittings for Ki in enzyme assay and Tm in DSF were performed using MATLAB (MathWorks, Natick, MA, USA).

CA II [4] = biological target: T2, CA II; assay: Differential scanning fluorimetry (DSF); format: binding; details: 200 µM inhibitor; for CA II ΔTm: shift from apo CA II
Method: as §2

SYK = tested on: SYK; parameters: method as in PMID 12941345; details: cited from earlier work
MST1 = tested on: MST1; parameters: method as in PMID 27535619; details: cited from earlier work
MST2 = tested on: MST2; parameters: method as in PMID 27535619; details: cited from earlier work

Sequence of CA XII (O43570 25-354): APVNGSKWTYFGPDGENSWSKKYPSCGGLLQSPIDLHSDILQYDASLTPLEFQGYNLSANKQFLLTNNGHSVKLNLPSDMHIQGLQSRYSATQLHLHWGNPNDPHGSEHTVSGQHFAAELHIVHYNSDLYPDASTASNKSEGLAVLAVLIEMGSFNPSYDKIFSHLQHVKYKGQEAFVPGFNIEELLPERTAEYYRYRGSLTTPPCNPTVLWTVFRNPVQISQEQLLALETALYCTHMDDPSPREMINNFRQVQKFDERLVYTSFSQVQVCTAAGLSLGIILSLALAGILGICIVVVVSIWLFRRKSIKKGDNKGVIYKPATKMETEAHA

## Cc1ccc(Nc2nccc(N(C)c3ccc4c(C)n(C)nc4c3)n2)cc1S(N)(=O)=O [Compound 5698, pazopanib]
CA XII
  Ki: 800 ± 300 nM
CA IX
  Ki: 1700 ± 500 nM
CA I [1]
  Ki: 67 ± 10 nM
CA II [2]
  Ki: 242 ± 32 nM

## Nc1nc(Nc2ccc(S(N)(=O)=O)cc2)nn1C(=O)c1c(F)cccc1F [Compound 5932, JNJ-7706621]
CDK2
  IC50: […]
CA XII
  Ki: […]
CA IX
  Ki: 220 ± 32 nM
CA I [1]
  Ki: 207 ± 66 nM
CA II [2]
  Ki: […]
CA I [3]
  CA I ΔTm: […]
CA II [4]
  CA II ΔTm: […]

## Nc1nc(Nc2ccc(S(N)(=O)=O)cc2)nn1C(=S)Nc1c(F)cccc1F [Compound 5946, CDK1/2 inhibitor III]
CDK2
  IC50: 0.5 nM
CA XII
  Ki: 254 ± 40 nM
CA IX
  Ki: 100 ± 28 nM
CA I [1]
  Ki: 258 ± 58 nM
CA II [2]
  Ki: 149 ± 21 nM
CA II [4]
  CA II ΔTm: 3.2 degrees

## Cn1cc(/C=C2\C(=O)Nc3ccc(S(N)(=O)=O)cc32)c2ccccc21 [Compound 6046]
SYK
  IC50: […]
CA XII
  Ki: 13000 ± 4000 nM
CA IX
  Ki: 2700 ± 300 nM
CA I [1]
  Ki: 60000 ± 9000 nM
CA II [2]
  Ki: 16000 ± 5000 nM
CA I [3]
  CA I ΔTm: 0.1 degrees
CA II [4]
  CA II ΔTm: 0.2 degrees

## CN1C(=O)c2sccc2N(C)c2nc(Nc3ccc(S(N)(=O)=O)cc3)ncc21 [XMU-MP-1]
MST1
  IC50: 71 nM
MST2
  IC50: 31 nM
CA XII
  Ki: 1000 nM
CA XII; compared with CA I, CA II and CA IX
  weaker in inhibiting CA XII: approximately 30 fold
CA IX
  Ki: ~30 nM and 31 nM
CA I [1]
  Ki: ~30 nM and 32 nM
CA II [2]
  Ki: ~30 nM and 24 nM
CA I [3]; 0.5 µM CA I, enzyme alone 56.2 ± 0.1
  CA I Tm: 61.9±0.2 °C
CA I [3]
  CA I ΔTm: 5.7 degrees
CA II [4]; 0.5 µM CA II, enzyme alone 52.6 ± 0.2
  CA II Tm: 59.9±0.2 °C
CA II [4]
  CA II ΔTm: 7.3 degrees
